The values that follow come from BindingDB's records for doi:10.1016/s0960-894x(01)00239-6 (Dupont Pharmaceuticals, 2001).

pIC50: −log10 of the molar value.

The target of this assay is T1, Gag-Pol polyprotein [588-1027]/[588-1147] (Human immunodeficiency virus 1, UniProt P04585).
T1 construct: 588-1027; 588-1147
The assay can be described thus: HIV-1 RT Assay. The following applies: pH 8.2; 37 °C. The source says: The IC50 of reverse transcriptase is the concentration that inhibits 50% of recombinant HIV-1 RT RNA-directed DNA polymerase activity in vitro.
The compound `CC[C@@H]1O[C@](/C=C/C2CC2)(C(F)(F)F)c2cc(F)ccc2NC1=O` [(3S,5S)-5-[(E)-2-cyclopropylethenyl]-3-ethyl-7-fluoro-5-(trifluoromethyl)-1,2,3,5-tetrahydro-4,1-benzoxazepin-2-one] showed a pIC50 of 6.82. Consider `C[C@@H]1O[C@](/C=C/C2CC2)(C(F)(F)F)c2c(ccc(F)c2F)NC1=O` [(3S,5S)-5-[(E)-2-cyclopropylethenyl]-6,7-difluoro-3-methyl-5-(trifluoromethyl)-1,2,3,5-tetrahydro-4,1-benzoxazepin-2-one], for which the pIC50 was 6.76. For `C[C@@H]1O[C@](/C=C/C2CC2)(C(F)(F)F)c2cc(F)ccc2NC1=O` [(3S,5S)-5-[(E)-2-cyclopropylethenyl]-7-fluoro-3-methyl-5-(trifluoromethyl)-1,2,3,5-tetrahydro-4,1-benzoxazepin-2-one] the value was 6.89; for `CC[C@@H]1O[C@](/C=C/C2CC2)(C(F)(F)F)c2cc(Cl)ccc2NC1=O` [(3S,5S)-7-chloro-5-[(E)-2-cyclopropylethenyl]-3-ethyl-5-(trifluoromethyl)-1,2,3,5-tetrahydro-4,1-benzoxazepin-2-one], 6.73; for `C[C@@H]1O[C@](/C=C/C2CC2)(C(F)(F)F)c2cc(Cl)ccc2NC1=O` [(3S,5S)-7-chloro-5-[(E)-2-cyclopropylethenyl]-3-methyl-5-(trifluoromethyl)-1,2,3,5-tetrahydro-4,1-benzoxazepin-2-one], 7.34.
